Earlier results, collected in patent US20230340373A1, “CLEANING WIPES” (Tygrus LLC, priority 2022, published 2023).

Conditions: 25 C; cited from earlier work

SMILES: C=CCc1ccc(O)c(OC)c1 [Eugenol]
- pKa: 10.19
